Calls of active or inactive are those of the source. Rule as the data show it, for most assays here: actives have a measured Kd and inactives only a lower limit.
Tests used:
[1] = target: Tyrosine-protein kinase Yes (Homo sapiens, UniProt P07947)
[2] = target: Platelet-derived growth factor receptor beta (Homo sapiens, UniProt P09619)
[3] = target: T1, Ferrochelatase, mitochondrial (Homo sapiens, UniProt P22830)
T1 sequence (P22830 whole entry): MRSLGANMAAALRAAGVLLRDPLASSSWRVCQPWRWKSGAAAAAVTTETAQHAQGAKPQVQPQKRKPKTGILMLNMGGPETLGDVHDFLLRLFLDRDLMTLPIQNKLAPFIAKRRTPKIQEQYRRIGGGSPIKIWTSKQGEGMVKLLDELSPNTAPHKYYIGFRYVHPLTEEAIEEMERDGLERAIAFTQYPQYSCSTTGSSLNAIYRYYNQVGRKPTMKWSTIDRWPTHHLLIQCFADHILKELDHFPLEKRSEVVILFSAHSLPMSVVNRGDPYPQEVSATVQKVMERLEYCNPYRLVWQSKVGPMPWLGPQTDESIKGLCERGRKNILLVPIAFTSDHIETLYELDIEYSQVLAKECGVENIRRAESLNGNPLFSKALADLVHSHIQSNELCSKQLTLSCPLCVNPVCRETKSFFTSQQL

[4] = target: T2, Calcium/calmodulin-dependent protein kinase type IV (Homo sapiens, UniProt Q16566)
T2 sequence (Q16566 whole entry): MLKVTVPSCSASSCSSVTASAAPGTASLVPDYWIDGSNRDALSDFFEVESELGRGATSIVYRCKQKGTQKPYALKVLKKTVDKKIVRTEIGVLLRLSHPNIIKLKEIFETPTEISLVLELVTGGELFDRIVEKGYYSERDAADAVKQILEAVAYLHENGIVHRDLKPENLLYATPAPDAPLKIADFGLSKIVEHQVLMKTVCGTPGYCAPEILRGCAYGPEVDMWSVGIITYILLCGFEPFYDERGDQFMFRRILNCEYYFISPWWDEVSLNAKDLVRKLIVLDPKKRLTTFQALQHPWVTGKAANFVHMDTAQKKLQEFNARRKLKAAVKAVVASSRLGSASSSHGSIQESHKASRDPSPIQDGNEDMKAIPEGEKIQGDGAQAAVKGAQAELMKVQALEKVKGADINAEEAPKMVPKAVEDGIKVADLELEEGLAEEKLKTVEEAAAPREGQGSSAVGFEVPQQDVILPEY

[5] = target: Protein-tyrosine kinase 6 (Homo sapiens, UniProt Q13882)
[6] = target: T3, Ephrin type-B receptor 6 (Homo sapiens, UniProt O15197)
T3 sequence (O15197 whole entry): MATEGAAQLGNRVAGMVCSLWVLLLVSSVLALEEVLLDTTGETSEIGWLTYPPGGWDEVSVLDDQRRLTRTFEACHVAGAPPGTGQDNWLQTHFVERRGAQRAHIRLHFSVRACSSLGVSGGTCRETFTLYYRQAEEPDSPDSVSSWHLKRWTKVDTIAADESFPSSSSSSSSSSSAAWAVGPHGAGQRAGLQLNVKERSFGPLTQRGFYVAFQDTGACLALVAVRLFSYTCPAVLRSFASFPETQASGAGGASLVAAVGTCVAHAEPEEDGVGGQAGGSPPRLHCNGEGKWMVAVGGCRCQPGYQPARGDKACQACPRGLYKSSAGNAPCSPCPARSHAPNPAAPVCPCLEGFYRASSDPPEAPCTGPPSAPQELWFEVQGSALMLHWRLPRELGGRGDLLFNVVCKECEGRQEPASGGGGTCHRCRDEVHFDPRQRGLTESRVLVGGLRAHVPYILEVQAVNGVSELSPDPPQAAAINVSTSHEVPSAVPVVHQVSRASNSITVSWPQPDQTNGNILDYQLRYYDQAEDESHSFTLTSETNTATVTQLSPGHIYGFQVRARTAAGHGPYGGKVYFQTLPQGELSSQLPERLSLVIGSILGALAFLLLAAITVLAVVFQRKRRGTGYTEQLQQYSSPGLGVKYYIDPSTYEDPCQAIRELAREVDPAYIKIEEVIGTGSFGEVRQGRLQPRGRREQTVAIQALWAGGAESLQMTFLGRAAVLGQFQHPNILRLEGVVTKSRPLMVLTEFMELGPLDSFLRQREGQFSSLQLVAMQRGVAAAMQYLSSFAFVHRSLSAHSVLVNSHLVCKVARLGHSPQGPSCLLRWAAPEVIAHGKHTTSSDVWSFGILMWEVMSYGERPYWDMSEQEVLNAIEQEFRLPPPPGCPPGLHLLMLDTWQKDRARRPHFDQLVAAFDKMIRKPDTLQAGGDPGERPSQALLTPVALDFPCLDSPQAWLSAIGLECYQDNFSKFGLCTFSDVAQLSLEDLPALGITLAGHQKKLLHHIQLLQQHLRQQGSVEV

[7] = target: T4, ATP-dependent RNA helicase DDX42 (Homo sapiens, UniProt Q86XP3)
T4 sequence (Q86XP3 whole entry): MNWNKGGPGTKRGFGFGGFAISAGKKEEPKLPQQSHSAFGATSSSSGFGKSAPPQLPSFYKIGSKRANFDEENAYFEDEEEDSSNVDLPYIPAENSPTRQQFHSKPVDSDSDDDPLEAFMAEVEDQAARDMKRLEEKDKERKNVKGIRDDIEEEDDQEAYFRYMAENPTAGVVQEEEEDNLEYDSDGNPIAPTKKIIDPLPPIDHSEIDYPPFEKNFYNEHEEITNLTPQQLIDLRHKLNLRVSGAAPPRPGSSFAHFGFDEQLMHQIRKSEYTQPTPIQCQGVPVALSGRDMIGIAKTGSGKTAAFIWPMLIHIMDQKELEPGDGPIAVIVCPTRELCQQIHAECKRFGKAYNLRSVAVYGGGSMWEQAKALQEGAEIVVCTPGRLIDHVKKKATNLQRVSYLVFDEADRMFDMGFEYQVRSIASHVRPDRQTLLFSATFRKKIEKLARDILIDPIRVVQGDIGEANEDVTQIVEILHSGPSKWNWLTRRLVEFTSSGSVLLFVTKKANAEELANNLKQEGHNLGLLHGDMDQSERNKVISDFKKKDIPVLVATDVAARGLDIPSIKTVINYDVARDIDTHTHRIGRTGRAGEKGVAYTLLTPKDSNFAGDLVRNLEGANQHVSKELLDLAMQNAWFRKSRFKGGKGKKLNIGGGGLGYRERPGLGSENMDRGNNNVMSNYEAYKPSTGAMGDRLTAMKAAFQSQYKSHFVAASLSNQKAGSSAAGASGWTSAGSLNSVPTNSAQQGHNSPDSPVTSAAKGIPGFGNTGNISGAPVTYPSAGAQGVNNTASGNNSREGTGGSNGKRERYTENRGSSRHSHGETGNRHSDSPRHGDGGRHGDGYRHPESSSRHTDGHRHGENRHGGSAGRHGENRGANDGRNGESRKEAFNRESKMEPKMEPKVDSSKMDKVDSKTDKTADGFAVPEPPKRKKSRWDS
Also: in the data inactive means no Kd found up to 30 µM.

Chain of Platelet-derived growth factor receptor beta (P09619 whole entry): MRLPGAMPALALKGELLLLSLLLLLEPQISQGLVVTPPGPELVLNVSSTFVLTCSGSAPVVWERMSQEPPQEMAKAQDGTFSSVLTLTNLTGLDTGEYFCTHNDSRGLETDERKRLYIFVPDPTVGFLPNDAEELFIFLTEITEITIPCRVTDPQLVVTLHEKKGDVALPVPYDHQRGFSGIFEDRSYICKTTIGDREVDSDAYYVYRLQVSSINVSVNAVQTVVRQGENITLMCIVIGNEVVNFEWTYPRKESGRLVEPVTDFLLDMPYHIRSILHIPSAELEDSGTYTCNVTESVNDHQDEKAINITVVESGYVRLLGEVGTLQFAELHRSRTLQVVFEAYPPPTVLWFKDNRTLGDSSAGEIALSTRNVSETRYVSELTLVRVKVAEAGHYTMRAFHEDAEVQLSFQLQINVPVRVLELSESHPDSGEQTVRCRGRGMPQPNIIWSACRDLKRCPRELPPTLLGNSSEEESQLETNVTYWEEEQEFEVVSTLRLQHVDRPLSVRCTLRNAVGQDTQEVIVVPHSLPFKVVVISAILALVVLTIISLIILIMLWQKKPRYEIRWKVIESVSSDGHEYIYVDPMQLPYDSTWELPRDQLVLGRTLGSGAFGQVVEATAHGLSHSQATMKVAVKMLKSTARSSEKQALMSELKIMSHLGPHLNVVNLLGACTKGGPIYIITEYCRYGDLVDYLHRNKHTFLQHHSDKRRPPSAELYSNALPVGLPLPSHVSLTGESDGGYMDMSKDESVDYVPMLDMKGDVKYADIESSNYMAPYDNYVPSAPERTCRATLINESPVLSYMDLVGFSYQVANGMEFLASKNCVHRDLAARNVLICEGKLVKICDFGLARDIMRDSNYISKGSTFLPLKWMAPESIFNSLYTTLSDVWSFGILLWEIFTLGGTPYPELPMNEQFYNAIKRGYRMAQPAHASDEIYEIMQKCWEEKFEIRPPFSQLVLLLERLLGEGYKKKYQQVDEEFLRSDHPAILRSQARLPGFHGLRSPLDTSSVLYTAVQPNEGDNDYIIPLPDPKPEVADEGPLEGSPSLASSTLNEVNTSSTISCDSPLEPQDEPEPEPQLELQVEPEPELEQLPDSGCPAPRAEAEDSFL
Chain of Tyrosine-protein kinase Yes (P07947 whole entry): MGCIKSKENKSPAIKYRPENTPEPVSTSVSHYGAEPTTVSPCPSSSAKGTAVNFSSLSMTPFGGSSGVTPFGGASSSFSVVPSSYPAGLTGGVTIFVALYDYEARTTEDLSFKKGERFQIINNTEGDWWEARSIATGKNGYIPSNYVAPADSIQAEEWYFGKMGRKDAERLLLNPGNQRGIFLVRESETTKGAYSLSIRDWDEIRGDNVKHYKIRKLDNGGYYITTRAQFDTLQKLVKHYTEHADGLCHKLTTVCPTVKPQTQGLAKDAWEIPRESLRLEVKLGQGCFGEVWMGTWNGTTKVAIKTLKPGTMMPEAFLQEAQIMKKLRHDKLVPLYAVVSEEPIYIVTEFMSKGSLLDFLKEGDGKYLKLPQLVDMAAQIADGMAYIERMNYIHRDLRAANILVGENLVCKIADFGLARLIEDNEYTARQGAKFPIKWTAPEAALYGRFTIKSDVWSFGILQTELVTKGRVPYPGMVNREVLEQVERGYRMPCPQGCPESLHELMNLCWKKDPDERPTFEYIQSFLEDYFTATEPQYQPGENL
Chain of Protein-tyrosine kinase 6 (Q13882 whole entry): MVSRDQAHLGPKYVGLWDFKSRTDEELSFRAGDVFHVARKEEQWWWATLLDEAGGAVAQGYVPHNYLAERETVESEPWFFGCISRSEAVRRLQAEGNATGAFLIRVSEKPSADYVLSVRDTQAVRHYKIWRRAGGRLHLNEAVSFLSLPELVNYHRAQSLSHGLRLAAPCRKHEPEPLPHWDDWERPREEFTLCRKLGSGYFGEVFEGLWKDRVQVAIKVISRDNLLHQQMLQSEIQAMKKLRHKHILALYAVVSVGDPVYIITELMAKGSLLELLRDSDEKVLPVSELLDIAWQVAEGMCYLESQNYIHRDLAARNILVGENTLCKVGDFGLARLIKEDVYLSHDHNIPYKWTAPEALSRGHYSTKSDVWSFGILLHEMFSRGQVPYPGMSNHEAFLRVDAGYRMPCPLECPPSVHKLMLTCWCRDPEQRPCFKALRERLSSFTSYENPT

SMILES | Kd [1] | Kd [2] | Kd [3] | Kd [4] | Kd [5] | Kd [6] | Kd [7]
CNC(=O)c1cc(Oc2ccc(NC(=O)Nc3ccc(Cl)c(C(F)(F)F)c3)c(F)c2)ccn1 [REGORAFENIB] | > 30 µM (inactive) | – | > 30 µM (inactive) | > 30 µM (inactive) | > 30 µM (inactive) | > 30 µM (inactive) | > 30 µM (inactive)
Cc1ccc(S(=O)(=O)Nc2nc3ccccc3nc2Nc2ccc3nsnc3c2)cc1 | > 30 µM (inactive) | > 30 µM (inactive) | > 30 µM (inactive) | > 30 µM (inactive) | > 30 µM (inactive) | > 30 µM (inactive) | –
C=CC(=O)N1CCC(Oc2cc3c(Nc4ccc(Cl)c(Cl)c4F)ncnc3cc2OC)CC1 [POZIOTINIB] | > 30 µM (inactive) | > 30 µM (inactive) | > 30 µM (inactive) | > 30 µM (inactive) | > 30 µM (inactive) | > 30 µM (inactive) | –
Nc1nc(N)c2nc(-c3cccc(O)c3)c(-c3cccc(O)c3)nc2n1 [TG100-115] | – | – | > 30 µM (inactive) | – | > 30 µM (inactive) | – | > 30 µM (inactive)
O=C(Nc1cccc(Cl)c1)Nc1ncc(CCNc2ncnc3ccsc23)s1 [SNS-314] | > 30 µM (inactive) | – | > 30 µM (inactive) | > 30 µM (inactive) | – | – | > 30 µM (inactive)
COc1cc(OC)c(/C=C/S(=O)(=O)Cc2ccc(OC)c(NCC(=O)O)c2)c(OC)c1 [RIGOSERTIB] | > 30 µM (inactive) | > 30 µM (inactive) | 5.58 µM (active) | > 30 µM (inactive) | > 30 µM (inactive) | > 30 µM (inactive) | –
CN1CCN(c2ccc3nc(-c4c(N)c5c(F)cccc5[nH]c4=O)[nH]c3c2)CC1 [DOVITINIB] | – | – | > 30 µM (inactive) | – | – | – | –
CCc1cnn2c(NCc3ccc[n+]([O-])c3)cc(N3CCCC[C@H]3CCO)nc12 [DINACICLIB] | > 30 µM (inactive) | – | > 30 µM (inactive) | > 30 µM (inactive) | > 30 µM (inactive) | > 30 µM (inactive) | > 30 µM (inactive)
C[C@@H]1CN(Cc2ccc(F)cc2)[C@@H](C)CN1C(=O)c1cc2c(C(=O)C(=O)N(C)C)cn(C)c2cc1Cl [TALMAPIMOD] | > 30 µM (inactive) | > 30 µM (inactive) | > 30 µM (inactive) | > 30 µM (inactive) | > 30 µM (inactive) | > 30 µM (inactive) | –

Now from value to molecule:

Kd [1] | Kd [2] | Kd [3] | Kd [4] | Kd [5] | Kd [6] | Kd [7] | SMILES
> 30 µM (inactive) | > 30 µM (inactive) | > 30 µM (inactive) | > 30 µM (inactive) | > 30 µM (inactive) | > 30 µM (inactive) | – | C[C@@H](Nc1cc(F)cc(F)c1)c1cc(C(=O)N(C)C)cc2c(=O)cc(N3CCOCC3)oc12 [AZD-8186]
0.441 µM (active) | – | > 30 µM (inactive) | > 30 µM (inactive) | – | > 30 µM (inactive) | > 30 µM (inactive) | Cc1cc(Nc2cc(N3CCN(C)CC3)nc(/C=C/c3ccccc3)n2)n[nH]1 [ENMD-2076]
> 30 µM (inactive) | > 30 µM (inactive) | > 30 µM (inactive) | > 30 µM (inactive) | > 30 µM (inactive) | > 30 µM (inactive) | – | O=C1NC(=O)/C(=C/c2ccc3nccc(-c4ccncc4)c3c2)S1 [GSK-1059615]
– | – | 2.7 µM (active) | – | – | – | > 30 µM (inactive) | CCn1c(-c2nonc2N)nc2c(C#CC(C)(C)O)ncc(OC[C@H]3CCCNC3)c21 [GSK-690693]
> 30 µM (inactive) | – | 0.783 µM (active) | > 30 µM (inactive) | – | 0.073 µM | > 30 µM (inactive) | Cc1nc(N)sc1-c1ccnc(Nc2ccc(N3CCOCC3)cc2)n1 [CYC-116]
> 30 µM (inactive) | – | > 30 µM (inactive) | > 30 µM (inactive) | > 30 µM (inactive) | > 30 µM (inactive) | > 30 µM (inactive) | OCCn1cc(-c2cnc3nnn(Cc4ccc5ncccc5c4)c3n2)cn1 [PF-04217903]
> 30 µM (inactive) | 0.288 µM (active) | > 30 µM (inactive) | > 30 µM (inactive) | > 30 µM (inactive) | > 30 µM (inactive) | – | COc1cc(CCc2cc(NC(=O)c3ccc(N4C[C@@H](C)N[C@@H](C)C4)cc3)n[nH]2)cc(OC)c1 [AZD-4547]

From ChEMBL document CHEMBL3991601, “The target landscape of clinical kinase drugs” (Science, 2017)
